Laboratory results from publication PMC11005723, “Development of Complementary Photo‐arginine/lysine to Promote Discovery of Arg/Lys hPTMs Interactomes” (Advanced Science, 2024).
Read-outs that look alike come from different tables or passages of the source. Non-standard residues stand in square brackets, D forms with d. No end group written: not given here. *: point of attachment. Biotin = O=C1N[C@H]2[C@H](CS[C@H]2CCCCC(=O)*)N1; R(dz) = photo-arginine

System: HEK293T nuclear lysates
Experiment: SILAC‐based pull‐down proteomics H4K5acK8ac/H4K5 (probes 8/5)
Assay type: binding, human

With “probe 8: H4K5acK8ac peptide probe with photo‐arginine R(dz) and K(biotin) (SG[R(dz)]GK(Ac)GGK(Ac)GLGKGGK(Biotin))” the “A6 log2 (H4K5ac8ac/H4K5)” value was 0.04066, the “B6 log2 (H4K5ac8ac/H4K5)” value was 0.03161 and the “proteins enriched (SILAC proteomics H4K5acK8ac/H4K5)” value (365 nm UV 30 min, streptavidin enrichment, n = 2) was “YEATS4 was enriched”. For the same substance, the “A6 log2 (H4K5ac8ac/H4K5)” value (protein ACO2 (Q99798), replicate A6) was 0.4428, the “B6 log2 (H4K5ac8ac/H4K5)” value (protein ACO2 (Q99798), replicate B6) was 0.07379 and the “A6 log2 (H4K5ac8ac/H4K5)” value (protein ACOT7 (O00154), replicate A6) was 0.4709. For the same substance, the “B6 log2 (H4K5ac8ac/H4K5)” value (protein ACOT7 (O00154), replicate B6) was -0.02566, the “A6 log2 (H4K5ac8ac/H4K5)” value (protein AGPS (O00116), replicate A6) was -0.04144 and the “B6 log2 (H4K5ac8ac/H4K5)” value (protein AGPS (O00116), replicate B6) was 0.004198. For the same substance, the “A6 log2 (H4K5ac8ac/H4K5)” value (protein ALDH18A1 (P54886), replicate A6) was 0.1932, the “B6 log2 (H4K5ac8ac/H4K5)” value (protein ALDH18A1 (P54886), replicate B6) was 0.05067 and the “A6 log2 (H4K5ac8ac/H4K5)” value (protein BUB3 (J3QT28), replicate A6) was 0.07833. The “B6 log2 (H4K5ac8ac/H4K5)” value (protein BUB3 (J3QT28), replicate B6) was 0.05185, the “A6 log2 (H4K5ac8ac/H4K5)” value (protein C11orf84 (Q9BUA3), replicate A6) was -0.4738 and the “B6 log2 (H4K5ac8ac/H4K5)” value (protein C11orf84 (Q9BUA3), replicate B6) was -0.01921. For the same substance, the “A6 log2 (H4K5ac8ac/H4K5)” value (protein CCAR1 (Q8IX12), replicate A6) was -0.2516, the “B6 log2 (H4K5ac8ac/H4K5)” value (protein CCAR1 (Q8IX12), replicate B6) was -0.018 and the “A6 log2 (H4K5ac8ac/H4K5)” value (protein CCT2 (P78371), replicate A6) was 0.3921. The “B6 log2 (H4K5ac8ac/H4K5)” value (protein CCT2 (P78371), replicate B6) was 0.08005, the “A6 log2 (H4K5ac8ac/H4K5)” value (protein CCT3 (B4DUR8), replicate A6) was 0.2904 and the “B6 log2 (H4K5ac8ac/H4K5)” value (protein CCT3 (B4DUR8), replicate B6) was 0.07923. The “A6 log2 (H4K5ac8ac/H4K5)” value (protein CHAF1A (Q13111), replicate A6) was -0.1099, the “B6 log2 (H4K5ac8ac/H4K5)” value (protein CHAF1A (Q13111), replicate B6) was 0.08018 and the “A6 log2 (H4K5ac8ac/H4K5)” value (protein CHD1L (A0A494C1F7), replicate A6) was 0.1451. The “B6 log2 (H4K5ac8ac/H4K5)” value (protein CHD1L (A0A494C1F7), replicate B6) was 0.0657, the “A6 log2 (H4K5ac8ac/H4K5)” value (protein CORO1B (Q9BR76), replicate A6) was 0.2889 and the “B6 log2 (H4K5ac8ac/H4K5)” value (protein CORO1B (Q9BR76), replicate B6) was 0.06919. The “A6 log2 (H4K5ac8ac/H4K5)” value (protein CPOX (P36551), replicate A6) was 0.124, the “B6 log2 (H4K5ac8ac/H4K5)” value (protein CPOX (P36551), replicate B6) was 0.04785 and the “A6 log2 (H4K5ac8ac/H4K5)” value (protein DNAJA2 (O60884), replicate A6) was 0.3475. For the same substance, the “B6 log2 (H4K5ac8ac/H4K5)” value (protein DNAJA2 (O60884), replicate B6) was -0.007896, the “A6 log2 (H4K5ac8ac/H4K5)” value (protein DYNC1LI1 (Q9Y6G9), replicate A6) was 0.04173 and the “B6 log2 (H4K5ac8ac/H4K5)” value (protein DYNC1LI1 (Q9Y6G9), replicate B6) was -0.03653. For the same substance, the “A6 log2 (H4K5ac8ac/H4K5)” value (protein DYNC1LI2 (O43237), replicate A6) was -0.06254, the “B6 log2 (H4K5ac8ac/H4K5)” value (protein DYNC1LI2 (O43237), replicate B6) was -0.0172 and the “A6 log2 (H4K5ac8ac/H4K5)” value (protein EEF1A2 (Q05639), replicate A6) was 0.1545. The “B6 log2 (H4K5ac8ac/H4K5)” value (protein EEF1A2 (Q05639), replicate B6) was 0.03088, the “A6 log2 (H4K5ac8ac/H4K5)” value (protein EIF3G (O75821), replicate A6) was -0.1739 and the “B6 log2 (H4K5ac8ac/H4K5)” value (protein EIF3G (O75821), replicate B6) was 0.07863. The “A6 log2 (H4K5ac8ac/H4K5)” value (protein EML4 (Q9HC35), replicate A6) was -0.3051, the “B6 log2 (H4K5ac8ac/H4K5)” value (protein EML4 (Q9HC35), replicate B6) was 0.01001 and the “A6 log2 (H4K5ac8ac/H4K5)” value (protein EXOSC10 (Q01780), replicate A6) was 0.04791. For the same substance, the “B6 log2 (H4K5ac8ac/H4K5)” value (protein EXOSC10 (Q01780), replicate B6) was -0.03432, the “A6 log2 (H4K5ac8ac/H4K5)” value (protein FEN1 (P39748), replicate A6) was 0.2678 and the “B6 log2 (H4K5ac8ac/H4K5)” value (protein FEN1 (P39748), replicate B6) was 0.04436. The “A6 log2 (H4K5ac8ac/H4K5)” value (protein FKBP4 (Q02790), replicate A6) was -0.547, the “B6 log2 (H4K5ac8ac/H4K5)” value (protein FKBP4 (Q02790), replicate B6) was -0.03149 and the “A6 log2 (H4K5ac8ac/H4K5)” value (protein FTO (A0A1B0GTY1), replicate A6) was 0.04491. The “B6 log2 (H4K5ac8ac/H4K5)” value (protein FTO (A0A1B0GTY1), replicate B6) was 0.03394, the “A6 log2 (H4K5ac8ac/H4K5)” value (protein FUBP1 (Q96AE4), replicate A6) was -0.499 and the “B6 log2 (H4K5ac8ac/H4K5)” value (protein FUBP1 (Q96AE4), replicate B6) was 0.06296. The “A6 log2 (H4K5ac8ac/H4K5)” value (protein GATAD2B (A0A0U1RRM1), replicate A6) was 0.09181, the “B6 log2 (H4K5ac8ac/H4K5)” value (protein GATAD2B (A0A0U1RRM1), replicate B6) was -0.04991 and the “A6 log2 (H4K5ac8ac/H4K5)” value (protein GMPS (P49915), replicate A6) was 0.3016. For the same substance, the “B6 log2 (H4K5ac8ac/H4K5)” value (protein GMPS (P49915), replicate B6) was -0.02008, the “A6 log2 (H4K5ac8ac/H4K5)” value (protein GPKOW (Q92917), replicate A6) was -0.007755 and the “B6 log2 (H4K5ac8ac/H4K5)” value (protein GPKOW (Q92917), replicate B6) was 0.07952. For the same substance, the “A6 log2 (H4K5ac8ac/H4K5)” value (protein GTF2I (P78347), replicate A6) was 0.3176, the “B6 log2 (H4K5ac8ac/H4K5)” value (protein GTF2I (P78347), replicate B6) was -0.03285 and the “A6 log2 (H4K5ac8ac/H4K5)” value (protein HADHA (P40939), replicate A6) was 0.03109. The “B6 log2 (H4K5ac8ac/H4K5)” value (protein HADHA (P40939), replicate B6) was 0.08176, the “A6 log2 (H4K5ac8ac/H4K5)” value (protein HNRNPA2B1 (P22626), replicate A6) was -0.08912 and the “B6 log2 (H4K5ac8ac/H4K5)” value (protein HNRNPA2B1 (P22626), replicate B6) was 0.03979. For the same substance, the “A6 log2 (H4K5ac8ac/H4K5)” value (protein HNRNPAB (D6R9P3), replicate A6) was -0.001487, the “B6 log2 (H4K5ac8ac/H4K5)” value (protein HNRNPAB (D6R9P3), replicate B6) was 0.001897 and the “A6 log2 (H4K5ac8ac/H4K5)” value (protein HNRNPD (D6RAF8), replicate A6) was -0.05205. For the same substance, the “B6 log2 (H4K5ac8ac/H4K5)” value (protein HNRNPD (D6RAF8), replicate B6) was 0.06546, the “A6 log2 (H4K5ac8ac/H4K5)” value (protein HNRNPM (A0A087X0X3), replicate A6) was 0.04259 and the “B6 log2 (H4K5ac8ac/H4K5)” value (protein HNRNPM (A0A087X0X3), replicate B6) was 0.03533. The “A6 log2 (H4K5ac8ac/H4K5)” value (protein HNRNPUL1 (A0A0A0MRA5), replicate A6) was 0.04263, the “B6 log2 (H4K5ac8ac/H4K5)” value (protein HNRNPUL1 (A0A0A0MRA5), replicate B6) was 0.07976 and the “A6 log2 (H4K5ac8ac/H4K5)” value (protein HSP90AB1 (P08238), replicate A6) was 0.1705. The “B6 log2 (H4K5ac8ac/H4K5)” value (protein HSP90AB1 (P08238), replicate B6) was -0.003539, the “A6 log2 (H4K5ac8ac/H4K5)” value (protein ILF3 (Q12906), replicate A6) was -0.01185 and the “B6 log2 (H4K5ac8ac/H4K5)” value (protein ILF3 (Q12906), replicate B6) was 0.0307. For the same substance, the “A6 log2 (H4K5ac8ac/H4K5)” value (protein IRS4 (O14654), replicate A6) was 0.9009, the “B6 log2 (H4K5ac8ac/H4K5)” value (protein IRS4 (O14654), replicate B6) was 0.04996 and the “A6 log2 (H4K5ac8ac/H4K5)” value (protein KHDRBS1 (Q07666), replicate A6) was -0.03568. For the same substance, the “B6 log2 (H4K5ac8ac/H4K5)” value (protein KHDRBS1 (Q07666), replicate B6) was 0.03173, the “A6 log2 (H4K5ac8ac/H4K5)” value (protein KIF23 (A0A2U3TZL8), replicate A6) was -0.125 and the “B6 log2 (H4K5ac8ac/H4K5)” value (protein KIF23 (A0A2U3TZL8), replicate B6) was 0. The “A6 log2 (H4K5ac8ac/H4K5)” value (protein LARS (Q9P2J5), replicate A6) was 0.1335, the “B6 log2 (H4K5ac8ac/H4K5)” value (protein LARS (Q9P2J5), replicate B6) was 0.07151 and the “A6 log2 (H4K5ac8ac/H4K5)” value (protein LEMD3 (Q9Y2U8), replicate A6) was 0.3015. For the same substance, the “B6 log2 (H4K5ac8ac/H4K5)” value (protein LEMD3 (Q9Y2U8), replicate B6) was -0.02986, the “A6 log2 (H4K5ac8ac/H4K5)” value (protein MAZ (I3L2Z5), replicate A6) was 0.4619 and the “B6 log2 (H4K5ac8ac/H4K5)” value (protein MAZ (I3L2Z5), replicate B6) was 0.02009. The “A6 log2 (H4K5ac8ac/H4K5)” value (protein MCM2 (P49736), replicate A6) was -0.3105, the “B6 log2 (H4K5ac8ac/H4K5)” value (protein MCM2 (P49736), replicate B6) was 0.01892 and the “A6 log2 (H4K5ac8ac/H4K5)” value (protein MCM4 (E5RG31), replicate A6) was -0.08812. For the same substance, the “B6 log2 (H4K5ac8ac/H4K5)” value (protein MCM4 (E5RG31), replicate B6) was 0.02676, the “A6 log2 (H4K5ac8ac/H4K5)” value (protein MCM5 (P33992), replicate A6) was 0.07464 and the “B6 log2 (H4K5ac8ac/H4K5)” value (protein MCM5 (P33992), replicate B6) was 0.03074. For the same substance, the “A6 log2 (H4K5ac8ac/H4K5)” value (protein MCM6 (Q14566), replicate A6) was 0.0904, the “B6 log2 (H4K5ac8ac/H4K5)” value (protein MCM6 (Q14566), replicate B6) was 0.06523 and the “A6 log2 (H4K5ac8ac/H4K5)” value (protein MLL2 (O14686), replicate A6) was 0.2969. The “B6 log2 (H4K5ac8ac/H4K5)” value (protein MLL2 (O14686), replicate B6) was 0.009441, the “A6 log2 (H4K5ac8ac/H4K5)” value (protein MRPL37 (Q9BZE1), replicate A6) was 0.1893 and the “B6 log2 (H4K5ac8ac/H4K5)” value (protein MRPL37 (Q9BZE1), replicate B6) was -0.03363. For the same substance, the “A6 log2 (H4K5ac8ac/H4K5)” value (protein MYH9 (P35579), replicate A6) was 0.0533.
